Data from patent US10456477B2, “Oligolactic acid conjugates and micelles with enhanced anticancer efficacy” (Wisconsin Alumni Research Foundation, priority 2016, dated 2019).
≈ marks a conversion by molar mass, not a printed value. Where “and” joins values, the source holds several entries; their conditions need not be identical. Equal entries are not always repeated. Where two headings read alike, the source gives them in different places.

Assays:
[1] = Drug loading efficiency, drug loading content and aqueous solubility of PEG-b-PLA micelles by RP-HPLC; assay type: physicochemical
Procedure: The polymeric film was dissolved by addition of sterile water or PBS (10 mM, pH 7.4), followed by centrifugation for 5 min at 13,000 rpm and sterile filtration (0.22 μm (Coring, N.Y.)).

[2] = test system: A549 NSCLC cell line; test: IC50 values and combination index analysis of PTX, SEL and RAP alone and in combination; assay type: cell-based, human; details: alone or combination at molar ratio PTX:SEL 2:3, PTX:RAP 2:1, SEL:RAP 3:1, PTX:SEL:RAP 2:3:1
Procedure: The cells were seeded into a 96-well plate at a seeding density of 1,500 cells/100 μL/well and cultured in RPMI 1640 medium at 37° C. in 5% CO2 incubator for 24 h. […] Each was added into the wells to attain a final concentrations of 0.1, 1, 10, 100, and 1000 nM. The final level of DMSO in the medium was <0.1% at all drug levels. Cells cultured with diluted DMSO or PBS in medium were used as controls. Drug treated cells were placed in an incubator at 5% CO2 at 37° C. for 72 h. The medium in each well was aspirated, and 100 μL of 20% (v/v) CellTiter-Blue reagent in serum free RPMI medium was added, followed by incubation at 37° C. in 5% CO2 atmosphere for 1.5 h. Fluorescence intensity was measured by a SpectraMax M2 plate reader (Molecular Devices, CA) with excitation and emission at 560 and 590 nm, respectively. The half maximal inhibitory drug concentration (IC50) was determined by using GraphPad Prism version 5.00 for Windows (GraphPad Software, CA).
In vitro anticancer activity of PTX, SEL, and RAP alone and in combination.

[3] = Hydrodynamic diameter of PEG-b-PLA micelles by dynamic light scattering; assay type: physicochemical
Procedure: Proton nuclear magnetic resonance (^1H NMR) data were recorded on a Varian Unity-Inova two-channel 400 MHz NMR spectrometer (Palo Alto, Calif.) with regulated temperature at 25° C. Chemical shifts (δ) were reported in parts per million (ppm) relative to residual protonated solvent resonance at 7.26 ppm for CDCl3. Mass spectrometry data was obtained using the Waters LCT (ESI-TOF) in the Chemical Instrumentation Center in the Department of Chemistry, University of Wisconsin-Madison. Samples were sprayed from a 10 mM NH4OAc/CH3CN solution. Reverse-phase HPLC (RP-HPLC) analysis was carried out using a Shimadzu Prominence HPLC system (Shimadzu, Japan) equipped with an LC-20AT pump, a SIL-20AC HT autosampler, a CTO-20AC column oven, and a SPD-M20A diode array detector. Sample was separated by a Waters Symmetry Shield™ RP18 column (4.6 mm×250 mm, 5 μm, 100 Å). 10 μL of sample was injected at a flow rate of 0.8 mL/min, column temperature at 25° C., and UV detection wavelength at 227 nm. The separation of o(LA)n-PTX conversion products was done in gradient mode with organic phase containing 100% CH3CN as solvent A, and aqueous phase containing 100% milliQ water as solvent B. Gradient elution was employed as follows: 0 min, 50% solvent A and 50% solvent B; 35 min, 95% solvent A and 5% solvent B; and 40 min for equilibration. Hydrodynamic diameters of PEG-b-PLA micelles were measured by dynamic light scattering (DLS) using a Zetasizer Nano-ZS (Malvern Instruments Inc., UK) at 25° C. with a detection angle of […] and a He—Ne ion laser as the light source (4 mW, 633 nm). Prior to measurements, PEG-b-PLA micelle solutions were diluted with milliQ water or PBS (10 mM, pH 7.4) to afford the level of PEG-b-PLA at ˜0.1 mg/mL and 1 mL of each sample was placed into a disposable sizing cuvette (BRAND Polystyrene Cuvettes). The cumulant method was used to curve-fit the correlation function, and the z-average diameter and polydispersity index (PDI) of PEG-b-PLA micelles were calculated from the Stokes-Einstein equation and the slope of the correlation function, respectively. All measurements were performed in triplicate.

[4] = Physical stability of drug- or conjugate-loaded PEG-b-PLA micelles (precipitation); details: for Stability: PEG-b-PLA micelles; for time until SEL precipitated out of PEG-b-PLA micelles: micelles containing unconjugated SEL alone
Procedure: Instead, loading efficiency of PTX was low, ca. 21%, and drug loading for PEG-b-PLA micelles leveled off at 11.2% drug loading.
SEL drug loading for PEG-b-PLA micelles was 1% with a very low drug loading efficiency of 5%. […] In contrast, the PEG-b-PLA micelles containing unconjugated SEL were unstable and SEL precipitated out within about 5 minutes.

[5] = test system: human A549 non-small lung cancer cells; test: In vitro cytotoxicity, CellTiter-Blue Cell Viability Assay; assay type: cell-based; details: free form, 72 h
Description: All chemicals were purchased from Sigma-Aldrich (St. Louis, Mo.) and used as received. Analytical grade organic solvents and all other reagents were purchased from Fisher Scientific (Pittsburgh, Pa.). PTX was purchased from LC Laboratories (Woburn, Mass.). PEG-b-PLA was purchased from Advanced Polymer Materials Inc. (Montreal, Canada): Mn of PEG and PLA was 4,000 and 2,200 g/mol, respectively; PDI 1.05. A549 human lung adenocarcinoma cells were purchased from ATCC (Manassas, Va.) and grown in RPMI 1640 medium supplemented with 10% fetal bovine serum (FBS), 100 IU/mL penicillin, 100 μg/mL streptomycin, and 2 mML-glutamine in 5% CO2 incubator at 37° C.
Each was added into the wells to attain a final concentrations of 0.1, 1, 10, 100, and 1000 nM. The final level of DMSO in the medium was <0.1% at all drug levels. Cells cultured with diluted DMSO or PBS in medium were used as controls. […] The medium in each well was aspirated, and 100 μL of 20% (v/v) CellTiter-Blue reagent in serum free RPMI medium was added, followed by incubation at 37° C. in 5% CO2 atmosphere for 1.5 h. Fluorescence intensity was measured by a SpectraMax M2 plate reader (Molecular Devices, CA) with excitation and emission at 560 and 590 nm, respectively. The half maximal inhibitory drug concentration (IC50) was determined by using GraphPad Prism version 5.00 for Windows (GraphPad Software, CA).

[6] = test system: A549 xenograft tumor model; test: In vivo antitumor efficacy in A549 xenograft tumor model; parameters: species or system female athymic nude mice; details: PEG-b-PLA micelles, 20 mg/kg, weekly tail vein injection, 3 weekly injections and one week off x 3 cycles
Procedure: All animal experiments were conducted under the protocol approved by Institutional Animal Care and Use Committee in University of Wisconsin-Madison in accordance with institutional and NIH guidance for the Care and Use of Laboratory Animals. 6-8 week-old female athymic nude mice (20-25 g each) were acquired from laboratory animal resources at School of Medicine and Public Health, University of Wisconsin-Madison. Mice were housed in ventilated cages with free access to water and food and acclimated for 1 week prior tumor cell injection. A549 cells (2×10^6 cells in 100 μL of serum-free RPMI 1640 medium) were harvested from sub-confluent cultures after trypsinization and were injected subcutaneously into the right flank of each mouse. […] Drug conjugates were administered via tail vein for 3 weekly injections, followed by 1-week rest period, totaling 3 cycles over a 12 weeks period. Body weight and tumor volume were monitored over the course of study. Tumor volume was calculated using the formula: V=(a×b^2)/2, where V is tumor volume, a is tumor length, b is tumor width.

[7] = In vitro release from PEG-b-PLA micelles (dialysis cassette); assay type: physicochemical
Procedure: Four dialysis cassettes were placed in 4 L PBS solution (10 mM, pH 7.4) on a Corning Hotplate Stirrer (Corning, N.Y.) at 37° C. […] At each time point, a sample of 100 μL was withdrawn, and the cassettes were replenished with 100 μL of fresh PBS solution (10 mM, pH 7.4). The external medium was replaced with 4 L of fresh buffer at 2, 4, 8, 12, 24 and 48 h to approximate sink conditions.

[8] = Table 1B, PEG-b-PLA micelles, drug to polymer ratio 1:1
[9] = Table 1B, PEG-b-PLA micelles, drug to polymer ratio 1:5
[10] = Table 1B, PEG-b-PLA micelles, drug to polymer ratio 1:10
[11] = Table 2, PTX, SEL and RAP co-loaded as 3-in-1 micelle, initial level 1, 1.5, 0.5 mg, molar ratio 2:6:1, 21 mg PEG4000-b-PLA2200
[12] = Table 1B, drug to polymer ratio 1:1
[13] = Table 1B, drug to polymer ratio 1:5
[14] = Table 1B, drug to polymer ratio 1:10
[15] = Table 1A, PEG-b-PLA micelles, drug to polymer ratio 1:10, initial level 1 mg, mean ± SD, n = 3
[16] = Table 1C, PEG-b-PLA micelles, drug to polymer ratio 1:5
[17] = Table 1C, drug to polymer ratio 1:5

CO[C@H]1C[C@@H]2CC[C@@H](C)[C@@](O)(O2)C(=O)C(=O)N2CCCC[C@H]2C(=O)O[C@H]([C@H](C)C[C@@H]2CC[C@@H](O)[C@H](OC)C2)CC(=O)[C@H](C)/C=C(\C)[C@@H](O)[C@@H](OC)C(=O)[C@H](C)C[C@H](C)/C=C/C=C/C=C/1C [RAP, rapamycin]
solubility ([1]; PEG-b-PLA micelles, aqueous with cosolvent or surfactant or cyclodextrin, Table 1B, PEG-b-PLA micelles, drug to polymer ratio 1:1, read-out: Apparent solubility): 500 µg/mL
solubility ([1]; PEG-b-PLA micelles, aqueous with cosolvent or surfactant or cyclodextrin, Table 1B, PEG-b-PLA micelles, drug to polymer ratio 1:5, read-out: Apparent solubility): 900 µg/mL
solubility ([1]; PEG-b-PLA micelles, aqueous with cosolvent or surfactant or cyclodextrin, Table 1B, PEG-b-PLA micelles, drug to polymer ratio 1:10, read-out: Apparent solubility): 1400 µg/mL
Drug loading [1, 8]: 11.5%
Drug loading efficiency [1, 8]: 23%
Drug loading [1, 9]: 7.3%
Drug loading efficiency [1, 9]: 44.0%
Drug loading [1, 10]: 6.4%
Drug loading efficiency [1, 10]: 70.1%
Drug loading [1, 11]: 2.2%
Loading efficiency [1, 11]: 100% and 104.6%
IC50 [2]: 320.6 ± 2.3 nM
Particle size [3, 12]: 59.5 ± 21.6 nm
Particle size [3, 13]: 36.2 ± 0.4 nm
Particle size [3, 14]: 37.7 ± 1.9 nm
Stability [4, 12]: <24 h
Stability [4, 13]: <24 h
Stability [4, 14]: <24 h
micelles released drug in ([4]; all PEG-b-PLA micelles containing unconjugated RAP): less than 24 hours

CC(=O)O[C@H]1C(=O)[C@@]2(C)[C@H]([C@H](OC(=O)c3ccccc3)[C@]3(O)C[C@H](OC(=O)[C@H](O)[C@@H](NC(=O)c4ccccc4)c4ccccc4)C(C)=C1C3(C)C)[C@]1(OC(C)=O)CO[C@@H]1C[C@@H]2O [PTX, paclitaxel]
solubility ([1]; PEG-b-PLA micelles in water, aqueous with cosolvent or surfactant or cyclodextrin, Table 1A, PEG-b-PLA micelles, drug to polymer ratio 1:10, initial level 1 mg, mean ± SD, n = 3, read-out: Apparent solubility): 900 µg/mL
solubility ([1]; PEG-b-PLA micelles in water, aqueous with cosolvent or surfactant or cyclodextrin, Table 1A, PEG-b-PLA micelles, drug to polymer ratio 3:5, initial level 6 mg, mean ± SD, n = 3, read-out: Apparent solubility): 1200 ± 100 µg/mL
Drug loading [1, 15]: 8.6% and 8.6 ± 1.1%
Drug loading efficiency [1, 15]: 93.8 ± 12.8%
Drug loading ([1]; Table 1A, PEG-b-PLA micelles, drug to polymer ratio 3:5, initial level 6 mg, mean ± SD, n = 3): 11.2% and 11.2 ± 1.1%
Drug loading [1, 11]: 4.3%
Loading efficiency [1, 11]: 100% and 104%
solubility ([1]; water, PTX without PEG-b-PLA micelles, read-out: water solubility): ~10 µg/mL (≈ 11.7 µM)
IC50 [5]: 2 nM
IC50 [2]: 7.4 ± 1.2 nM
Particle size ([3]; Table 1A, drug to polymer ratio 1:10, initial level 1 mg, 10 mg PEG-b-PLA, mean ± SD, n = 3): 30.5 nm and 30.5 ± 0.3 nm
Particle size ([3]; Table 1A, drug to polymer ratio 3:5, initial level 6 mg, 10 mg PEG-b-PLA, mean ± SD, n = 3): 37.0 ± 5.7 nm
tumor growth / tumor volume [6]: tumor growth inhibition during treatment over 71 days and delayed tumor growth
micelles precipitating in ([4]; PEG-b-PLA micelles at room temperature): less than 2 hours
precipitation of PTX during in vitro release ([7]; 9% drug loading, particle size 30 nm, PEG-b-PLA micelles): < 4 h
in vitro release from PEG-b-PLA micelles (in words) ([7]; PBS 10 mM, pH 7.4, 37° C., FIG. 4): rapidly released

Cn1cnc2c(F)c(Nc3ccc(Br)cc3Cl)c(C(=O)NOCCO)cc21 [SEL, selumetinib]
drug loading, loaded in micelles with free paclitaxel and free rapamycin ([1]; 3-drug co-loading): greater than 6 wt %
Drug loading [1, 16]: 1%
Drug loading efficiency [1, 16]: 5% and 5.1%
Drug loading [1, 11]: 6.3%
Loading efficiency [1, 11]: 100% and 101.7%
solubility ([1]; aqueous with cosolvent or surfactant or cyclodextrin, Table 1C, PEG-b-PLA micelles, drug to polymer ratio 1:5, read-out: Apparent solubility): 100 µg/mL
drug loading, loaded alone in micelles ([1]; free selumetinib alone): about 1 wt %
IC50 [2]: 1729 ± 1.6 nM
Particle size [3, 17]: 60.6 ± 0.6 nm
Stability [4, 17]: <2 h
time until SEL precipitated out of PEG-b-PLA micelles [4]: ≤ 5 min
time until SEL precipitated out of PEG-b-PLA micelles ([4]; listed as selumetinib): about 5 minutes
